Assay results reported in ChEMBL document CHEMBL1201862, “PubChem BioAssay data set” (2004).
The source made the active and inactive calls.

Legend:
[1] = molecular target: T1, Short transient receptor potential channel 4 (Mus musculus, UniProt Q9QUQ5); assay: potentiation of DAMGO-evoked TRPC4 calcium signal – cell-based, HEK293 TRPC4/mu-opioid, Fluo-4 calcium, EC20 DAMGO, dose response (AID 434941); type: functional
T1 sequence (Q9QUQ5 whole entry): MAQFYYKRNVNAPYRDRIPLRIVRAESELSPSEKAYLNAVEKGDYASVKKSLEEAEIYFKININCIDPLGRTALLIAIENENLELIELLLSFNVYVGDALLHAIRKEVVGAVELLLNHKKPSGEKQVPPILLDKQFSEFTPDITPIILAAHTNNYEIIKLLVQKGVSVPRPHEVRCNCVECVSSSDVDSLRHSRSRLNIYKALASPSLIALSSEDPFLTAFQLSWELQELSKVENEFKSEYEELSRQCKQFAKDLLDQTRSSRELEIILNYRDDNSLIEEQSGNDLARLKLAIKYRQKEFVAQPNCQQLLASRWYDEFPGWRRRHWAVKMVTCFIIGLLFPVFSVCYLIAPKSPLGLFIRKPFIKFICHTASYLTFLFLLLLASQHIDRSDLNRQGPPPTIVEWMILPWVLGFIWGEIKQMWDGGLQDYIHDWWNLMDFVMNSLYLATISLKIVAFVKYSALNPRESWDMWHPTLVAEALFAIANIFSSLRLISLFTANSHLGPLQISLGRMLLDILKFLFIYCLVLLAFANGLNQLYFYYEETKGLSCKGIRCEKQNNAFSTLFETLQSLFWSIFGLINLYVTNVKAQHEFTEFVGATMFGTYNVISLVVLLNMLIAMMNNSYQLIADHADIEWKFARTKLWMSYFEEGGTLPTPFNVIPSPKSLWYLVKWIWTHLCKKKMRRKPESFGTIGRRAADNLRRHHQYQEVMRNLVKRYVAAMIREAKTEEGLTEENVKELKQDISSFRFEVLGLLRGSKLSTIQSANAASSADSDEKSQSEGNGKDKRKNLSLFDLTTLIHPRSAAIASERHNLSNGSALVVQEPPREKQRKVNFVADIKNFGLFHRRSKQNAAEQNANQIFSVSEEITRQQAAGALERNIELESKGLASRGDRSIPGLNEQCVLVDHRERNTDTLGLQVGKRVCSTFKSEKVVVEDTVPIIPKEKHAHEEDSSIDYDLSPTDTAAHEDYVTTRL

[2] = molecular target: T2, Histone-lysine N-methyltransferase NSD2 (Homo sapiens, UniProt O96028); type: biochemical
T2 sequence (O96028 whole entry): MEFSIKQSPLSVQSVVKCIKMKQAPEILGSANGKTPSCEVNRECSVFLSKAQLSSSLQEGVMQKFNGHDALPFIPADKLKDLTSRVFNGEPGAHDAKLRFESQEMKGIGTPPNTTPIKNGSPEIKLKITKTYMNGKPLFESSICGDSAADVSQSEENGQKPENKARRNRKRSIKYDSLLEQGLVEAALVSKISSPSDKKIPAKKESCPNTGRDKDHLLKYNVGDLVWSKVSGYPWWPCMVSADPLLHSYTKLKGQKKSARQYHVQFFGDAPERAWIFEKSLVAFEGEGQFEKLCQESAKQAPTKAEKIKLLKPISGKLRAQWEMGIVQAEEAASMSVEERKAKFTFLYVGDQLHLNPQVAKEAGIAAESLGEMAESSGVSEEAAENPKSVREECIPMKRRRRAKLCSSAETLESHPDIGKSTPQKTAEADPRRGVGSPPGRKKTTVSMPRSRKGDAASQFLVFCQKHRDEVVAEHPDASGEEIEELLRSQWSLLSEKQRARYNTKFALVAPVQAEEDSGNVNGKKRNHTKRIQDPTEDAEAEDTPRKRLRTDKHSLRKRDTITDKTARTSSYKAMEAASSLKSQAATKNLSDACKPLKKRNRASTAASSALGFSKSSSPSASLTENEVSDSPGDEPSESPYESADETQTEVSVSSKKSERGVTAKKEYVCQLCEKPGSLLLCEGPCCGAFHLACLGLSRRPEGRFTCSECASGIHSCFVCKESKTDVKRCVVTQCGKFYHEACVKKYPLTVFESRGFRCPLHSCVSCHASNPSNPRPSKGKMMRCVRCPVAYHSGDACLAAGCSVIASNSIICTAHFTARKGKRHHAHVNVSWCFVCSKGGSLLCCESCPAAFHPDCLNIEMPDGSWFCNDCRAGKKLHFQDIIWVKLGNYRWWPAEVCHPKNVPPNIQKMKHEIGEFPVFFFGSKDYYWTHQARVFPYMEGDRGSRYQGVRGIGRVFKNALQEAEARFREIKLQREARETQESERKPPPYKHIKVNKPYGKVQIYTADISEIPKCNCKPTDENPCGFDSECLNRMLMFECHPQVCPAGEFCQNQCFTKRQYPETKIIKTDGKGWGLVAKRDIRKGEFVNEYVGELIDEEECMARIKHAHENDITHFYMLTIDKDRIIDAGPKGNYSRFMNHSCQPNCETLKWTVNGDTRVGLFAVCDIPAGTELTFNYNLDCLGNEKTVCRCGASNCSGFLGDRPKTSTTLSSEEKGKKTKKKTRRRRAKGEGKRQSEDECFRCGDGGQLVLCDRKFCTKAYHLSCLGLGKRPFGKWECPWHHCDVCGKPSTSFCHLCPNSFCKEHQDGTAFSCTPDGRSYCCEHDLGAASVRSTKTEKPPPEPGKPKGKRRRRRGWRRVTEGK

[3] = molecular target: Intestinal-type alkaline phosphatase (Mus musculus, UniProt P24822); assay: PubChem AID 488785; type: functional
Sequence of Intestinal-type alkaline phosphatase (Mus musculus, UniProt P24822) (P24822 whole entry): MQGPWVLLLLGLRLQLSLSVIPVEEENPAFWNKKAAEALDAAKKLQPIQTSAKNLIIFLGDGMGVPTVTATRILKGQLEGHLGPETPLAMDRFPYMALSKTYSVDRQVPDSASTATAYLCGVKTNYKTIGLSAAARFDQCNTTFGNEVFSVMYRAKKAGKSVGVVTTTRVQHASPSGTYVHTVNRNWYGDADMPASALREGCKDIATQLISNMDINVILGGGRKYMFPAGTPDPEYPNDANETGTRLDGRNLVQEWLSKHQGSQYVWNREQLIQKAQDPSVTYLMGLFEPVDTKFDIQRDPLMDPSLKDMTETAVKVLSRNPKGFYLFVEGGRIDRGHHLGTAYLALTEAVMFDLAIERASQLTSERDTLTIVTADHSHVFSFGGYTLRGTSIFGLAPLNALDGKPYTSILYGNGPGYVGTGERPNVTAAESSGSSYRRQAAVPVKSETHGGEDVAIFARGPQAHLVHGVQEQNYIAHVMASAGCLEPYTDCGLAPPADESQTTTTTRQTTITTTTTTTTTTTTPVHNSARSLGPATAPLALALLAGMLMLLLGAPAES

H9c2 = assay: cells; type: functional, cell-based; conditions: Rattus norvegicus, H9c2, Myocardium;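 also: confirmatory concentration-response retest of ultra-high-throughput screening hits for modulation of myocardial damage; cell death induced by hydrogen peroxide oxidative stress; compound pretreatment for 60 min then peroxide exposure for 2 h; potency is for protecting the cells against peroxide damage rather than for killing them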
[4] = molecular target: Intestinal-type alkaline phosphatase (Homo sapiens, UniProt P09923); assay: activation of human intestinal alkaline phosphatase – biochemical, dose response (AID 488873); type: functional
Sequence of Intestinal-type alkaline phosphatase (Homo sapiens, UniProt P09923) (P09923 whole entry): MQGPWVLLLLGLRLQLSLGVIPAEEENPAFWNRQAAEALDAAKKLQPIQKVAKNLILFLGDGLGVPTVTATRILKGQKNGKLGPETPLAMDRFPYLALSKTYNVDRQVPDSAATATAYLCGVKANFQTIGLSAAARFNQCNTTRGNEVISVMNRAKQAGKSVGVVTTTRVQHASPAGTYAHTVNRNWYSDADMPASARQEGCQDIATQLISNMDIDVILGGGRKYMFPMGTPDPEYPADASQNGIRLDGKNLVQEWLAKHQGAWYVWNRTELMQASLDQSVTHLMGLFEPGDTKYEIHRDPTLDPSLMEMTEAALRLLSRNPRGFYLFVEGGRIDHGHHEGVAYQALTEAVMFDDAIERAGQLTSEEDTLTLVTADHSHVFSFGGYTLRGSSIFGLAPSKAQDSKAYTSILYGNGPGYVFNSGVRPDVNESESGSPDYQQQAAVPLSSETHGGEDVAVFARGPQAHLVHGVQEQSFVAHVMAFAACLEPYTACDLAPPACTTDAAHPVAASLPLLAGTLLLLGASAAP

[5] = molecular target: T3, Alkaline phosphatase, tissue-nonspecific isozyme (Homo sapiens, UniProt P05186); assay: TNAP enzyme inhibition by screening hits, dose response, selectivity assay for mouse IAP inhibitor project, biochemical, human TNAP, uHTS hits (AID 488906); type: functional
T3 sequence (P05186 whole entry): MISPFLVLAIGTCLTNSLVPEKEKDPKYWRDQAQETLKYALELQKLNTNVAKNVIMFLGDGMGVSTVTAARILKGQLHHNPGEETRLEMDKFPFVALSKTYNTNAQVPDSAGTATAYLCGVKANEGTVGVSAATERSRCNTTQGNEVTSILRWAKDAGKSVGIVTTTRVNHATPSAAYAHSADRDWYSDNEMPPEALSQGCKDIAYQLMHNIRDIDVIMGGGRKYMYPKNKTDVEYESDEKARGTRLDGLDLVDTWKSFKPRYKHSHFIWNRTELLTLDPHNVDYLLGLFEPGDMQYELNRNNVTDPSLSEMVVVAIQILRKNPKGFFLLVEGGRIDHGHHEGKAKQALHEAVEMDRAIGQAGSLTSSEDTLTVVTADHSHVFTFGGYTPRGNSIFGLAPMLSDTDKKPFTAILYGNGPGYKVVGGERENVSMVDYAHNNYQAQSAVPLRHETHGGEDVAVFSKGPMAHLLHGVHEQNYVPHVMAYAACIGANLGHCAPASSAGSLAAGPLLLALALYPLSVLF

[6] = fluconazole-exposed Candida albicans growth modulators – fluorescence, retest, confirmation (AID 2467); type: functional, cell-based
[7] = NIH-3T3 fibroblast cytotoxicity, dose response, cytotoxicity control, cell-based, fluorescence, Alamar Blue, secondary assay (AID 2327); type: functional;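 also: NIH-3T3 mouse fibroblasts cultured with fluconazole at 8 µg/mL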
Beta-galactosidase = Beta-galactosidase (Escherichia coli, UniProt Q8VNN2); assay: detection-enzyme interference by beta-gal modulators – biochemical, E. coli enzyme, set 3, artefact control for CCR6 antagonist project, dose response (AID 504712); type: functional
Sequence of Beta-galactosidase (Q8VNN2 whole entry): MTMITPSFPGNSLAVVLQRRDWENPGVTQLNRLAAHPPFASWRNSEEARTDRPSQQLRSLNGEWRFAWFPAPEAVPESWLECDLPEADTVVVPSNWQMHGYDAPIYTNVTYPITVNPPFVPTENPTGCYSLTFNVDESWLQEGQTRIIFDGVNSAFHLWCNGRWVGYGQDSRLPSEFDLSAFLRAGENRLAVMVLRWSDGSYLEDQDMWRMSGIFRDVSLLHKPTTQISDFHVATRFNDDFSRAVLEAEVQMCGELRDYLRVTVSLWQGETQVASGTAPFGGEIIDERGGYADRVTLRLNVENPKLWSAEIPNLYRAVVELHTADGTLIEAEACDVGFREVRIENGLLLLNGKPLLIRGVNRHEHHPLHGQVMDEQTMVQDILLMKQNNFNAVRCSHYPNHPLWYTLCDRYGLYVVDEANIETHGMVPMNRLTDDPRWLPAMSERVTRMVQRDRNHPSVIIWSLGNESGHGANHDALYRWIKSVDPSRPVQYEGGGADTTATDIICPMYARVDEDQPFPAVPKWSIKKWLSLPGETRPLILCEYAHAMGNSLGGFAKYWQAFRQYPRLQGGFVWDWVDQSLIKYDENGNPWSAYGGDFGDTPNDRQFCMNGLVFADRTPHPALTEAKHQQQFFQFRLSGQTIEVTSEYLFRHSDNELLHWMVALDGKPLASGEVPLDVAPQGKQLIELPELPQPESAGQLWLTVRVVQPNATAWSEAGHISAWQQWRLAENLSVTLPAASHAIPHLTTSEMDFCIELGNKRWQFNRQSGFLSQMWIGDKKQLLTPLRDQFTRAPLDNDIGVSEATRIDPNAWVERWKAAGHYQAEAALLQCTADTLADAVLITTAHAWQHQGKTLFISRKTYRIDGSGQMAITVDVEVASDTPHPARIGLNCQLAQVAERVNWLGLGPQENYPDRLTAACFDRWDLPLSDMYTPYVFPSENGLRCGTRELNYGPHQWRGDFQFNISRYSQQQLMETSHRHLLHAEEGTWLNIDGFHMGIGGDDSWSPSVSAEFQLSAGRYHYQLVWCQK

Large T antigen = Large T antigen (Simian virus 40, UniProt P03070); type: functional, Betapolyomavirus macacae;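 also: Confirmatory-stage PubChem screen for compounds that inhibit SV40 T antigen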
Sequence of Large T antigen (P03070 whole entry): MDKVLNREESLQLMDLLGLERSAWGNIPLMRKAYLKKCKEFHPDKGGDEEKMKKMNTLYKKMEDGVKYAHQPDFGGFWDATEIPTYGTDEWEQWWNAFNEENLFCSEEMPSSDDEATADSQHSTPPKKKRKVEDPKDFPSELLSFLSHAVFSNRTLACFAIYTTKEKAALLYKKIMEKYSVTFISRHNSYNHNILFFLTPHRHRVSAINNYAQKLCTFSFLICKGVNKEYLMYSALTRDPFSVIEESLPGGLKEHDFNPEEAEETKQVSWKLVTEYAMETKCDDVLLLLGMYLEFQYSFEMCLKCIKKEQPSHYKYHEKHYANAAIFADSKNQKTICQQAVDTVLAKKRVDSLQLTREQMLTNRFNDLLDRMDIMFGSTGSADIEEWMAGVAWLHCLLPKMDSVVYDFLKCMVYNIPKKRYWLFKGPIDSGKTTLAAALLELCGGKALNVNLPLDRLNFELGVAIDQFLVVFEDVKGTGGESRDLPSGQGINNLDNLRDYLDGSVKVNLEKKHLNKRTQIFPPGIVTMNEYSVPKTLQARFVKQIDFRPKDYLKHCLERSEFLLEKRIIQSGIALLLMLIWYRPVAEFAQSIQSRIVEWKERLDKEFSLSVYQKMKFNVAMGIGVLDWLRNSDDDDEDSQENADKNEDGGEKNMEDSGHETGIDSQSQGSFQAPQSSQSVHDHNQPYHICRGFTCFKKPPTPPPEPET

[8] = molecular target: DNA dC->dU-editing enzyme APOBEC-3G (Homo sapiens, UniProt Q9HC16); assay: Dose Response confirmation of small molecule APOBEC3G DNA Deaminase Inhibitors via a fluorescence-based single-stranded DNA deaminase assay. [Related pubchem assays (depositor defined):AID493012, AID493028]; type: functional
Sequence of DNA dC->dU-editing enzyme APOBEC-3G (Q9HC16 whole entry): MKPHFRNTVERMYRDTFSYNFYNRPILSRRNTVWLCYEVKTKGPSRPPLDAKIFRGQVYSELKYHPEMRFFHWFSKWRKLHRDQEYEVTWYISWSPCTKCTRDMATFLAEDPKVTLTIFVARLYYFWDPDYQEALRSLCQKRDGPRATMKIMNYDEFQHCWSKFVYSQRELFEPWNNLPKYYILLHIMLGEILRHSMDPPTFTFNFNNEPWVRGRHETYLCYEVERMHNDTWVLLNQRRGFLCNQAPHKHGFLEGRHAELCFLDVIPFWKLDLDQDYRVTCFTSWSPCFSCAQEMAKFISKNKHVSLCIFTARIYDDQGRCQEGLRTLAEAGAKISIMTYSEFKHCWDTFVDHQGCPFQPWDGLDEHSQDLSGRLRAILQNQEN

Hexokinase HKDC1 = molecular target: T4, Hexokinase HKDC1 (Homo sapiens, UniProt Q2TB90); assay: inhibition of HKDC1 glucose phosphorylation – biochemical, W721R variant, dose response (AID 504729); type: functional
T4 sequence (Q2TB90 whole entry): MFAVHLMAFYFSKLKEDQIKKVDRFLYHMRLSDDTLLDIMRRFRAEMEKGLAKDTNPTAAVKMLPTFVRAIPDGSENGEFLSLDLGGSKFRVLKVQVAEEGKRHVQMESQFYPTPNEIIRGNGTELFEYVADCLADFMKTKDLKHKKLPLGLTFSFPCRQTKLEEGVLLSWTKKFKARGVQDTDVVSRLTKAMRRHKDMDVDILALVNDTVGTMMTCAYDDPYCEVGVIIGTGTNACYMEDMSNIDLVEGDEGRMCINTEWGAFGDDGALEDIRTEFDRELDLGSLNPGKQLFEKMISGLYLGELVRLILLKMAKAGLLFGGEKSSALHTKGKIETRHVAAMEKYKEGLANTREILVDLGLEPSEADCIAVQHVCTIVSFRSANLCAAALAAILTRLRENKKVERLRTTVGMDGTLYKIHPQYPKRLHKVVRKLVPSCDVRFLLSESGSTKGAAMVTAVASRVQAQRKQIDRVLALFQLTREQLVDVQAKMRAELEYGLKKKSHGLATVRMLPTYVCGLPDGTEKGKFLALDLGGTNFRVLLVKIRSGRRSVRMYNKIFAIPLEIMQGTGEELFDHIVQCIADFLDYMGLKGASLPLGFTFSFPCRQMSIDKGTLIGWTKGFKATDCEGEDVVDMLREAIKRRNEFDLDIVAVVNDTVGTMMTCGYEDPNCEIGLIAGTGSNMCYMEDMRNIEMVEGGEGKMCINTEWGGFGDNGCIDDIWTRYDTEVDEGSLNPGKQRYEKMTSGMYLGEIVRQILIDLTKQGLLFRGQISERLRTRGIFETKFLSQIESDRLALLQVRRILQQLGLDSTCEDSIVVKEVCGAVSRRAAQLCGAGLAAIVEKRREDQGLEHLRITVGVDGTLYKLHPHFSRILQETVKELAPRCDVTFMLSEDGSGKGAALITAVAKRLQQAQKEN

**Q.** Which EC50 [1] does the source give for `Cc1cc(OCC(=O)N(C(C)C)C(C)C)cc(C)c1Br` here?
**A.** Its EC50 is 3.76 µM (active).

**Q.** With `O=C(CN1CCN(c2ccccc2F)CC1)c1ccc(O)c(O)c1` as the compound, how does the AC50 [2] read?
**A.** The AC50 was 8.98 µM (active).

**Q.** And the IC50 [3]?
**A.** Its IC50 is 1.63 µM (active).

**Q.** And the IC50 (H9c2)?
**A.** Its IC50 is > 79 µM (inactive).

**Q.** And the EC50 [4]?
**A.** The EC50 was > 100 µM (inactive).

**Q.** What about the IC50 [5] of the same compound?
**A.** The IC50 was 96.8 µM (active).

**Q.** For `CCCCn1c(SCC(=O)N2c3ccccc3Sc3ccccc32)nc2c1c(=O)n(C)c(=O)n2C`, which EC50 [1] is on record?
**A.** Its EC50 is 4.22 µM (active).

**Q.** Which EC50 [6] does the source give for `O=C(NC(=S)Nc1ccccc1O)c1ccc(Cl)cc1Cl` here?
**A.** The EC50 was 0.636 µM (active).

**Q.** What about the EC50 [7] of the same compound?
**A.** Its EC50 is > 160 µM (inconclusive).

**Q.** And the IC50 (Beta-galactosidase)?
**A.** The IC50 was > 66.6 µM (inactive).

**Q.** With `Sc1nnc(NCCCN2CCOCC2)s1` as the compound, how does the IC50 (Large T antigen) read?
**A.** The IC50 was 22.6 µM (active).

**Q.** And the IC50 [8]?
**A.** The IC50 was 22.4 µM (active).

**Q.** For `Cc1cccc(N2C(=O)NC(=O)/C(=C\c3cc(C)n(-c4sc5c(c4C#N)CCCC5)c3C)C2=O)c1C`, which IC50 (Hexokinase HKDC1) is on record?
**A.** Its IC50 is 17.1 µM (active).
